One may read the IC50 as the concentration that inhibits the measured activity by half. In general, Ki refers to a measure of affinity in units of concentration, obtained from inhibition or displacement. A low value points to a stronger hold on the target.

Counter-ions that a name gives are not always drawn. Like-named read-outs stand apart in the source and are kept apart here. A value given as a limit tells only on which side of the number the result lay.

We go through 31 molecules from US9079866B2, “Flap modulators” (JANSSEN PHARMACEUTICA NV, priority 2013, dated 2015).

In test [1] the test system is leukotriene pathway in human whole blood (LTB4 levels). As to the kind of experiment: Human whole blood assay (A23187-stimulated LTB4). The class given is cell-based. The conditions noted are these: Homo sapiens, read-out: LTB4 IC50 1:1. Summed up: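 Heparinised human whole blood diluted 1:1 in RPMI, pre-incubated 15 min at 37° Celsius with compound, then stimulated with A23187 (7 μg/mL) for 30 min at 37° Celsius. Plasma LTB4 measured by immunoassay kit; IC50 from 4-parameter fit; single replicate per plate, at least one healthy donor.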

The target in the next test is human FLAP (Homo sapiens (Human), UniProt P20292). Kind of test: FLAP binding assay (HTRF format). To be noted: HTRF format. Summed up:
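HTRF ratio read-out; two independent plates, samples in duplicate on each, values averaged across plates.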

Setting [2] is: human whole blood diluted 1:1 in RPMI, A23187-stimulated LTB4.
The mark [3] stands for this setting: human FLAP wild type, average of two plates, duplicates.
[4] abbreviates: human whole blood diluted 1:1, A23187-stimulated.

Sequence of human FLAP (P20292 whole entry): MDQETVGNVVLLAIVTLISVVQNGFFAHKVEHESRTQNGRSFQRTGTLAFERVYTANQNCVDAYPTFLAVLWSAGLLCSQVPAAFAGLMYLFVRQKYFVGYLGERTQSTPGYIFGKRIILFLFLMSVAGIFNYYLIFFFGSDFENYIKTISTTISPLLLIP

As to `CC1(NS(=O)(=O)c2ccccc2-c2ccc(-c3cnc(N)cn3)c(F)c2)CCC1` [Example 11, 4′-(5-Aminopyrazin-2-yl)-3′-fluoro-N-(1-methylcyclobutyl)biphenyl-2-sulfonamide], the IC50 in test [1] (setting [2]) came to 15 nM. At human FLAP (setting [3]), the affinity, expressed as Ki, was 2 nM.
In the same order, the values of `Nc1cnc(-c2ccc(-c3ccccc3S(=O)(=O)N3CCC(F)(F)C3)cc2F)cn1` [Example 51, 5-{2′-[(3,3-Difluoropyrrolidin-1-yl)sulfonyl]-3-fluorobiphenyl-4-yl}pyrazin-2-amine] are 42 nM and 4 nM.
With `CC(C)CS(=O)(=O)Nc1ccccc1-c1ccc(-c2cnc(N)cn2)c(F)c1` [Example 37, N-[4′-(5-Aminopyrazin-2-yl)-3′-fluorobiphenyl-2-yl]-2-methylpropane-1-sulfonamide], the half-maximal inhibitory concentration (IC50) in test [1] (setting [2]) came to 676 nM. On human FLAP (setting [3]), the Ki was determined as 30 nM.
Regarding `Nc1ncc(-c2ccc(-c3ccccc3Sc3ncncc3N)cc2F)cn1` [Example 331, 5-{2′-[(5-Aminopyrimidin-4-yl)sulfanyl]-3-fluorobiphenyl-4-yl}pyrimidin-2-amine formate salt], the IC50 in test [1] (setting [2]) amounted to 62 nM. The same molecule had a Ki at human FLAP (setting [3]) of 14 nM.
In the same order, the values of `Nc1cnc(-c2ccc(-c3ccccc3S(=O)(=O)N[C@@H]3c4ccccc4C[C@H]3O)cc2F)cn1` [Example 159, 4′-(5-Aminopyrazin-2-yl)-3′-fluoro-N-((1R,2R)-2-hydroxy-2,3-dihydro-1H-inden-1-yl)-[1′,1′-biphenyl]-2-sulfonamide] are 1 nM and 1 nM.
The corresponding values for `Nc1cnc(-c2ccc(-c3ccccc3CS(=O)(=O)NCCO)cc2F)cn1` [Example 221, 1-[4′-(5-Aminopyrazin-2-yl)-3′-fluorobiphenyl-2-yl]-N-(2-hydroxyethyl)methanesulfonamide formic acid salt] are 854 nM and 300 nM.
As to `N#Cc1cccnc1Oc1ccccc1-c1ccc(-c2cnc(N)cn2)c(F)c1` [Example 532, 2-{[4′-(5-Aminopyrazin-2-yl)-3′-fluorobiphenyl-2-yl]oxy}pyridine-3-carbonitrile], the IC50 in test [1] (setting [4]) turned out to be 32 nM. Besides, the Ki at human FLAP (wild type FLAP) was 6 nM.
For `C[C@@H](CO)NS(=O)(=O)c1ccccc1-c1ccc(-c2ncc(N)nc2C#N)c(F)c1` [Example 711, 4′-(5-Amino-3-cyanopyrazin-2-yl)-3′-fluoro-N-[(1S)-2-hydroxy-1-methylethyl]biphenyl-2-sulfonamide], the IC50 in test [1] (setting [4]) came to 142 nM. Moreover, the inhibition constant Ki on human FLAP (wild type FLAP) turned out to be 41.7 nM.
As to `N#Cc1nc(N)cnc1-c1ccc(-c2ccccc2S(=O)(=O)NCCO)cc1F` [Example 706, 4′-(5-Amino-3-cyanopyrazin-2-yl)-3′-fluoro-N-(2-hydroxyethyl)biphenyl-2-sulfonamide], the IC50 in test [1] (setting [4]) turned out to be 362 nM. The Ki at human FLAP (wild type FLAP) was determined as 79.6 nM.
In the same order, the values of `Nc1cnc(-c2ccc(-c3ccccc3N3CCCCS3(=O)=O)cc2F)cn1` [Example 857, 5-[2′-(1,1-Dioxido-1,2-thiazinan-2-yl)-3-fluorobiphenyl-4-yl]pyrazin-2-amine] are 205 nM and 28 nM.
As for `Nc1cnc(-c2ccc(-c3ccccc3S(=O)(=O)N3CCC[C@H]3CO)cc2F)cn1` [Example 95, (S)-(1-((4′-(5-Aminopyrazin-2-yl)-3′-fluoro-[1,1′-biphenyl]-2-yl)sulfonyl)pyrrolidin-2-yl)methanol], the IC50 in test [1] (setting [2]) turned out to be 53 nM. At human FLAP (setting [3]), this molecule gave an inhibition constant (Ki) of 10 nM.
Take `Nc1cnc(-c2ccc(-c3ccccc3CS(=O)(=O)c3ncccn3)cc2F)cn1` [Example 752, 5-{3-Fluoro-2′-[(pyrimidin-2-ylsulfonyl)methyl]biphenyl-4-yl}pyrazin-2-amine]: the half-inhibitory concentration (IC50) in test [1] (setting [4]) was 299 nM. The affinity at human FLAP (wild type FLAP) corresponds to a Ki of 135 nM.
In the same order, the values of `CC(C)(O)Cn1cc(-c2ccccc2-c2ccc(-c3cnc(N)cn3)c(F)c2)cn1` [Example 851, 1-{4-[4′-(5-Aminopyrazin-2-yl)-3′-fluorobiphenyl-2-yl]-1H-pyrazol-1-yl}-2-methylpropan-2-ol] are 359 nM and 32.6 nM.
For the molecule `N#Cc1ccc(Oc2ccccc2-c2ccc(-c3cnc(N)nc3)c(F)c2)nc1` [Example 627, 6-{[4′-(2-Aminopyrimidin-5-yl)-3′-fluorobiphenyl-2-yl]oxy}pyridine-3-carbonitrile], in test [1] (setting [4]), the IC50 stood at 366 nM. On human FLAP (wild type FLAP), this molecule gave an inhibition constant (Ki) of 43.7 nM.
On to `Nc1cnc(-c2ccc(-c3ccccc3S(=O)(=O)N3C[C@H](O)[C@@H](O)C3)cc2F)cn1` (relative stereo) [Example 106, (trans)-1-{[4′-(5-Aminopyrazin-2-yl)-3′-fluorobiphenyl-2-yl]sulfonyl}pyrrolidine-3,4-diol], for which the half-maximal inhibitory concentration (IC50) in test [1] (setting [2]) was above 1000 nM. This molecule also returned a Ki on human FLAP (setting [3]) of 19 nM.
As for `Nc1cnc(-c2ccc(-c3ccccc3O)cc2F)cn1` [Example 476, 4′-(5-Aminopyrazin-2-yl)-3′-fluorobiphenyl-2-ol], the concentration for half-maximal inhibition (IC50) in test [1] (setting [4]) amounted to 891 nM. For the same molecule, at human FLAP (wild type FLAP), the Ki turned out to be 32 nM.
For `C[Si](C)(C)CCOCOc1cc(C(F)(F)F)ccc1-c1ccc(-c2cnc(N)nc2)c(F)c1` [Example 557, 5-[3-Fluoro-4′-(trifluoromethyl)-2′-{[2-(trimethylsilyl)ethoxy]methoxy}biphenyl-4-yl]-pyrimidin-2-amine], the IC50 in test [1] came out at 1070 nM. This molecule returned a Ki on human FLAP (wild type FLAP) of 147 nM.
As to `CCN1CCCC[C@@H](NS(=O)(=O)c2ccccc2-c2ccc(-c3cnc(N)cn3)c(F)c2)C1=O` [Example 27, (S)-4′-(5-Aminopyrazin-2-yl)-N-[(3S)-1-ethyl-2-oxoazepan-3-yl]-3′-fluorobiphenyl-2-sulfonamide], the IC50 in test [1] (setting [2]) is 10000 nM. For the same molecule, the affinity on human FLAP (setting [3]), expressed as Ki, was 29 nM.
Consider `Cc1nccc(Oc2ccccc2-c2ccc(-c3cnc(N)nc3)c(F)c2)n1` [Example 542, 5-{3-Fluoro-2′-[(2-methylpyrimidin-4-yl)oxy]penyl-4-yl}pyrimidin-2-amine], for which the half-inhibitory concentration (IC50) in test [1] (setting [4]) is 311 nM. The same molecule showed a Ki at human FLAP (wild type FLAP) of 107 nM.
As for `CCNS(=O)(=O)c1ccccc1-c1ccc(-c2cnc(N)nc2)c(F)c1` [Example 295, 4′-(2-Aminopyrimidin-5-yl)-N-ethyl-3′-fluorobiphenyl-2-sulfonamide trifluoroacetic acid salt], in test [1] (setting [2]), the IC50 was 110 nM. On human FLAP (setting [3]), this molecule registered a Ki of 25 nM.
In the same order, the values of `Nc1cnc(-c2ccc(-c3ccccc3S(=O)(=O)N3CCOC(CO)C3)cc2F)cn1` (racemic) [Example 142, racemic (4-{[4′-(5-Aminopyrazin-2-yl)-3′-fluorobiphenyl-2-yl]sulfonyl}morpholin-2-yl)methanol] are 41 nM and 15 nM.
Regarding `O=C(c1ccccc1-c1ccc(-c2cnc3[nH]ccc3n2)c(F)c1)N1CCOCC1` [Example 500, 2-[3-Fluoro-2′-(morpholin-4-ylcarbonyl)biphenyl-4-yl]-5H-pyrrolo[2,3-b]pyrazine], the IC50 in test [1] (setting [4]) stood at 139 nM. This molecule showed a Ki on human FLAP (wild type FLAP) of 48 nM.
The corresponding values for `CN(c1ccccc1-c1ccc(-c2cnc(N)cn2)c(F)c1)S(C)(=O)=O` [Example 490, N-[4′-(5-Aminopyrazin-2-yl)-3′-fluorobiphenyl-2-yl]-N-methylmethanesulfonmide] are 269 nM and 354 nM.
The corresponding values for `Nc1cnc(-c2ccc(-c3ccccc3Oc3nccc(C(F)(F)F)n3)cc2F)cn1` [Example 612, 5-(3-Fluoro-2′-{[4-(trifluoromethyl)pyrimidin-2-yl]oxy}biphenyl-4-yl)pyrazin-2-amine] are 42 nM and 14.6 nM.
With `C[C@H](NS(=O)(=O)c1ccccc1-c1ccc(-c2cnc(N)cn2)c(F)c1)C(=O)O` [Example 156, (S)-2-(4′-(5-Aminopyrazin-2-yl)-3′-fluoro-[1,1′-biphenyl]-2-ylsulfonamido)propanoic acid], in test [1] (setting [2]), the half-inhibitory concentration (IC50) was above 10000 nM. The molecule also yielded an inhibition constant Ki on human FLAP (setting [3]) of 351 nM.
With `CC(CO)NS(=O)(=O)c1ccccc1-c1ccc(-c2cnc3[nH]ccc3n2)c(F)c1` (stereo in doubt) [Example 380, 3′-Fluoro-N-[(1S)-2-hydroxy-1-methylethyl]-4′-(5H-pyrrolo[2,3-b]pyrazin-2-yl)biphenyl-2-sulfonamide], the IC50 in test [1] (setting [2]) was 46 nM. This molecule also showed an inhibition constant Ki on human FLAP (setting [3]) of 1 nM.
In the case of `CC(C)(C)NS(=O)(=O)c1ccccc1-c1ccc(-c2cnc(N)c(C#N)c2)c(F)c1` [Example 450, 4′-(6-Amino-5-cyanopyridin-3-yl)-N-tert-butyl-3′-fluorobiphenyl-2-sulfonamide trifluoroacetic acid salt], the concentration for half-maximal inhibition (IC50) in test [1] (setting [4]) was determined as 340 nM. In addition, the inhibitory constant (Ki) on human FLAP (wild type FLAP) was found to be 74 nM.
The corresponding values for `C[C@@H](NS(=O)(=O)c1ccccc1-c1ccc(-c2cnc(N)nc2)nc1)C(F)(F)F` [Example 686, 2-[6-(2-Aminopyrimidin-5-yl)pyridin-3-yl]-N-[(1R)-2,2,2-trifluoro-1-methylethyl]benzenesulfonamide trifluoroacetic acid salt] are 1490 nM and 334 nM.
`CCN(CC)C(=O)CSc1ccccc1-c1ccc(-c2cnc(N)cn2)c(F)c1` [Example 201, 2-{[4′-(5-Aminopyrazin-2-yl)-3′-fluorobiphenyl-2-yl]sulfanyl}-N,N-diethylacetamide]: in test [1] (setting [2]), the 50% inhibitory concentration (IC50) is 358 nM. The molecule also showed a Ki at human FLAP (setting [3]) of 21 nM.
On to `CN1CCN(S(=O)(=O)c2ccccc2-c2ccc(-c3cnc(N)cn3)c(F)c2)CC1` [Example 54, 5-{3-Fluoro-2′-[(4-methylpiperazin-1-yl)sulfonyl]biphenyl-4-yl}pyrazin-2-amine], for which, in test [1] (setting [2]), the IC50 was 23 nM. The Ki at human FLAP (setting [3]) is 20 nM.
Consider `CCS(=O)(=O)N(C)c1ccccc1-c1ccc(-c2cnc3[nH]ccc3n2)c(F)c1` [Example 493, N-[3′-Fluoro-4′-(5H-pyrrolo[2,3-b]pyrazin-2-yl)biphenyl-2-yl]-N-methylethanesulfonamide], for which the IC50 in test [1] (setting [4]) was found to be 303 nM. Besides, the affinity at human FLAP (wild type FLAP) corresponds to a Ki of 7 nM.
